Measured values taken from US9618511B2, “Methods and compositions for treating alzheimer's disease” (Eleanore Bennett Charitable Trust #2, priority 2008, dated 2017).
Entries after “also recorded” stand apart in the source; their conditions may differ.

Legend:
[1] = test system: PI3K (p85) from NIH/3T3 cells; test: PI3K activity assay (conversion of PI to PI3P, TLC); type: biochemical
Protocol: PI3K was immunoprecipitated (IP) from the NIH/3T3 cell lysates with rabbit anti-p85 subunit (Upstate). The IPs were washed twice with cold phosphate buffered saline (PBS) buffer containing 0.5% NP-40 and 0.1 mM Na3VO4, and then twice with THE buffer [Tris.HCl pH7.4 20 mM, NaCl 100 mM, EGTA 0.5 mM]. PI3K activity was determined by incubating the beads with kinase buffer [6.5 mM HEPES (pH 7.4), 10 mM MgCl2] with 50 μM ATP, 2 μCi [y-32P]ATP, 4 μg of 3-sn-Phosphatidyl-L-serine (PS) and 2 μg of D-myo-Phosphatidylinositol (PtdIns; PI) (Echelon, Salt Lake City, Utah) for 10 min at room temperature. The reactions were stopped by adding 50 μl of 4N HCl. Phospholipids were extracted using 100 μl of CHCl3/methanol (1:1). […] The conversion of PI to PI3P was detected and quantified using a Storm Phosphorimager (GE Healthcare).
Phosphatidylinositol (PI), including phosphatidylserine (PS) as a carrier, was used as a substrate for PI3K activity assay. [y-32P]ATP and kinase buffer were added to the IP and lipid mixture at room temperature to start the reaction. Phospholipids were extracted in 100 μl of CHCl3/methanol and separated by TLC. Bar charts give quantified results using a phosphorimager.

[2] = test system: C2C12 myotubes; test: Extracellular peptide or insulin treatment of C2C12 myotubes, western blot of Akt signaling; type: cell-based, mouse
Protocol: The prior cell-based and in vitro experiments are relevant to […] Aβ effects. To determine the specificity of Akt inhibition by […] Aβ, C2C12 myotubes were cultured, and treated with extracellular Aβ25-35, Aβ35-25, Aβ1-42 and Aβ42-1 for 24 hours. In the last 30 minutes before harvest, insulin was added (0.1 μg/ml). While p-Akt (Ser473) and p-GSK-3 α/β levels were increased by insulin treatment (FIG. 9C, lane 2 vs. 1), they were not affected by any of the Aβ treatments. […] There were also no significant changes in p-Akt (Ser473) levels (data not shown). […] PDK itself is subject to phosphorylation (e.g., at Ser 241) and several authors feel that it is constitutively phosphorylated and thus ‘primed’ (Casamayor, A., Morrice, N. A., and Alessi, D. R., 1999, Phosphorylation of Ser-241 is essential for the activity of 3-phosphoinositide-dependent protein kinase-1: identification of five sites of phosphorylation in vivo, Biochem J 342 (Pt 2):287-292). The experiments described herein indicate that p-PDK levels are constitutively high in C2C12 cells and not boosted further by insulin action (FIG. 9E, top). p-PDK levels were not modulated by extracellular (FIG. 9E lower panel) or intracellular Aβ expression (not shown).
In FIG. 9C C2C12 myotubes were bath exposed to AP25-35, reverse AP35-25, AP1-42 and reverse Aβ42-1 peptides for 24 hours before treatment with insulin (0.1 μg/ml, 15 min) Whole cell extracts were subjected to Western analysis for p-Akt (Ser473) (Akt activation) and total Akt levels (top) as well as for endogenous levels of pGSK-3a/p, indicative of Akt activity, and total GSK-3β (lower two blots). […] The increase was not affected by pre-treatment with extracellular AR.
In FIG. 9D C2C12 myotube cultures were exposed to increasing doses of A[i1-42 (0, 10 and 25 μM) for 2 hours before treatment with insulin (0, 20, 100 and 500 ng/ml) for 15 min Harvested cell extracts were used for western blot for p-Akt (Thr308).

[3] = target: T1, pre-activated Akt1 (Mus musculus, UniProt P31750); test: In vitro kinase assay on pre-activated (insulin-conditioned) Akt1; type: biochemical, mouse (C2C12 myotubes); details: 10 μM peptide
T1 construct: Akt1 was immunoprecipitated from control and insulin treated C2C12 myotubes for in vitro kinase assay; endogenous in cells; host or cells: insulin-treated mouse C2C12 myotubes
T1 sequence (P31750 whole entry): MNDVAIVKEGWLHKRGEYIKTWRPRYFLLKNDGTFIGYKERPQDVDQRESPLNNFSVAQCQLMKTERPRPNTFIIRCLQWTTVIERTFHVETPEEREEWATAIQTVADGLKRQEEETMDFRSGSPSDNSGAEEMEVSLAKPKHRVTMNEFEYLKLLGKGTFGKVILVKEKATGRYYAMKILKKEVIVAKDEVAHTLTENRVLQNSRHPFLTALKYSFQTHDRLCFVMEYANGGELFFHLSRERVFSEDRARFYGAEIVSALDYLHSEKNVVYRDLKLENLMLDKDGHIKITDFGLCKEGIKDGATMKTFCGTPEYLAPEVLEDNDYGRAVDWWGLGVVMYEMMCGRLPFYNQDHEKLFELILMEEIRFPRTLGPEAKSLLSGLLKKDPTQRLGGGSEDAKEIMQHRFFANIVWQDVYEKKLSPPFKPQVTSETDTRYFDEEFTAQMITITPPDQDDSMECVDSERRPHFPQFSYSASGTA
Protocol: Akt1 was immunoprecipitated (IP) overnight from 100 μg of the human brain sample or from C2C12 myotubes infected with adenovirus encoding Aβ using a 1:100 dilution of goat anti-Akt1 antibody. The following morning, 40 μl of a 50% slurry of protein G-Agarose (PGA) (Roche Applied Science) was added for an additional 1.5 hours. The beads were washed twice with wash buffer [1× phosphate buffered saline (PBS), 0.5% NP-40, 0.1 mM Na3VO4] and twice with kinase buffer [25 mM Tris (pH 7.5), 2 mM DTT, 0.1 mM Na3VO4, 10 mM MgCl2]. ATP (200 μM) and GSK-3 fusion protein (1 μg/50 μl) were added in the presence of kinase buffer, and the final reaction (50 μl) was incubated 30 minutes at 30° C. The reaction was stopped by adding 40 μl of Laemmli buffer. 20 μl of sample was loaded onto a 10% polyacrylamide gel for fractionation and western detection development.
Variably however, the degree of inhibition sometimes exceeded the baseline activity in the absence of PDK. Thus, it is possible that Aβ may have an additional action to deactivate Akt. […] Insulin stimulated Akt activity in extracts made from C2C12myotube cultures (FIG. 9A, 3rd row, lane 2 vs. 1). […]
In FIG. 9B Aβ42 (10 μM) and scrambled Aβ42 had no effect on insulin-conditioned Akt1 activity. Protein phosphatase 2A (PP2A; 5 μg/ml) decreased levels of both p-Akt (Ser473) and Akt activity (p-GSK-3 α/β), quantified by densitometry below.

## Aβ42: synthetic 42 amino acid β-amyloid peptide, forward sequence, freshly prepared, predominantly monomeric (BioSource)
[1]; 10 μM peptide
  PI3K activity: did not; also recorded: no effect
[1]; dose-response: Aβ1-42 0.05, 0.5, 5 μM, reverse Aβ42-1 5 μM
  PI3K activity: no effect
[2]; extracellular 1-100 nM, 2 or 24 hours, then insulin 500 ng/ml 30 min
  p-PDK (Ser241) levels: remain unaffected
[2]; extracellular peptide 24 hours, then insulin 0.1 μg/ml
  p-Akt (Ser473) and p-GSK-3 α/β levels after insulin: not affected
[2]; extracellular, up to 25 μM in the media, insulin 20, 100, 500 ng/ml
  p-Akt (Thr308) levels, insulin dose response: did not affect
[3]
  insulin-conditioned Akt1 activity and p-Ser473 levels: no effect
